Each structure is given as a SMILES string. pIC50: −log10 of the molar value.

What is called inhibition is the relative decrease from the control value, in per cent. One may read the pIC50 as the negative decadic logarithm of the IC50, by convention in mol/L.

One assay deals with T1, vanilloid receptor (Rattus norvegicus, UniProt O35433).
T1 construct: DRG nerve cells from the primary culture of 2 days were equilibrated; endogenous in cells; host or cells: primary culture of dorsal root ganglion neurons from neonatal SD rats
T1 sequence (O35433 whole entry): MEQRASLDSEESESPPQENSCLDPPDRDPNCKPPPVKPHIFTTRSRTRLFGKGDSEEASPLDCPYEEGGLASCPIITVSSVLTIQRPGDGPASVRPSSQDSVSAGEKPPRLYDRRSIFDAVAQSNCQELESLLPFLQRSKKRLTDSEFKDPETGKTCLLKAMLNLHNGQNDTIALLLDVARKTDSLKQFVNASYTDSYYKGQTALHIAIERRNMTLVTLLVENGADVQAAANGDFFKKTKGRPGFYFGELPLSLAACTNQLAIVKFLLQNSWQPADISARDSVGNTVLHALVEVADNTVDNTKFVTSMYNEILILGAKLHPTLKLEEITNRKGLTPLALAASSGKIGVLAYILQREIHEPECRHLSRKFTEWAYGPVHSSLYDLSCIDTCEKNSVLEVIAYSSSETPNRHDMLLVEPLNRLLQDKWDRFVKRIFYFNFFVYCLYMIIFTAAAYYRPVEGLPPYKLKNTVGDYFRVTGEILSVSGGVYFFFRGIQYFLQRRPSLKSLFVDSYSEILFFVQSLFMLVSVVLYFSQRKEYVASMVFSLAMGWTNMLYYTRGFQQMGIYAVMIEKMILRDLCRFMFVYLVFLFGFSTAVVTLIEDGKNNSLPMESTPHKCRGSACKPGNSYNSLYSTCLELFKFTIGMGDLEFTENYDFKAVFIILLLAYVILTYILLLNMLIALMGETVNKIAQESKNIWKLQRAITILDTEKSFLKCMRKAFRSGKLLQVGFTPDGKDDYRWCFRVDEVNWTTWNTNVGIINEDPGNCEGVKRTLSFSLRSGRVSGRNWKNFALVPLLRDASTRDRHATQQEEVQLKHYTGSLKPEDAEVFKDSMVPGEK
Kind of assay: 45Ca influx test (antagonist calcium uptake test) in rat DRG neurons stimulated with capsaicin. The class given is cell-based. As to conditions: DRG neuron; @1 μM; neonatal SD rat DRG neurons; capsaicin 0.5 μM; read-out: Antagonist Calcium Uptake Test, percent inhibition of capsaicin response. The protocol: 1) Separation of spinal dorsal root ganglia (DRG) in newborn rats and primary culture thereof
Neonatal (2-3 clay old or younger than 2-3 day old) SD rats were put in ice for 5 minutes to anesthetize and disinfected with 70% ethanol. DRG of all part of spinal cord were dissected (Wood et al., 1988, J. Neurosci. 8, pp 3208-3220) and collected in DME/F12 medium to which 1.2 g/l sodium bicarbonate and 50 mg/l gentamycin were added. The DRG were incubated sequentially at 37° C. for 30 mins in 200 U/ml collagenase and 2.5 mg/ml trypsin, separately. The ganglia were washed twice with DME/F12 medium supplemented with 10% horse serum, triturated through a fire-polished Pasteur pipette, filtered through Nitex 80 membrane to obtain single cell suspension and the suspension was washed once more. This was subjected to centrifugation, then resuspended in cell culture medium at certain level of cell density. As the cell culture medium, DME/F12 medium supplemented with 10% horse serum was diluted with identical medium conditioned by C6 glioma cells 2 clays on a confluent monolayer (1:1), and NGF (Nerve Growth Factor) was added to adjust 200 ng/ml as final concentration. After the cells were grown 2 days in medium where cytosine arabinoside (Ara-C, 100 μM) was added to kill dividing nonneuronal cells, medium was changed to one without Ara-C. The resuspended cells were plated at a density of 1500-2000 neurons/well onto Terasaki plates previously coated with 10 μg/ml poly-D-ornithine.
2) ^45Ca Influx Experiments
DRG nerve cells from the primary culture of 2 days were equilibrated by washing 4 times with HEPES (10 mM, pH 7.4)-buffered Ca^2+, Mg^2+-free HBSS (H-HBSS). The solution in each well was removed from the individual well. Medium containing the test compound plus capsaicin (final concentration 0.5 μM) and ^45Ca (final concentration 10 μCi/ml) in H-HBSS was added to each well and incubated at room temperature for 10 nuns. Terasaki plates were washed five times with H-HBSS and dried at room temperature. To each well, 0.3% SDS (10 μl) was added to elute ^45Ca. After the addition of scintillation cocktail of into each well, the amount of ^45Ca influx into neuron was measured by counting radioactivity. Antagonistic activities of test compounds against vanilloid receptor were calculated as percent of the inhibition of maximal response of capsaicin at a concentration of 0.5 μM.
Turning to `C#Cc1cc(CNC(=O)c2ccc(-c3cccc(C(F)(F)F)c3)o2)cc(F)c1NS(C)(=O)=O` [Example 104, 5-(3-Trifluoromethyl-phenyl)-furan-2-carboxylic acid 3-ethynyl-5-fluoro-4-methanesulfonylamino-benzylamide], the inhibition at 1 µM worked out at 100%.

Staying with this assay, now noted: DRG neuron; @3 μM; neonatal SD rat DRG neurons; capsaicin 0.5 μM; read-out: Antagonist Calcium Uptake Test, percent inhibition of capsaicin response.
Turning to `C=Cc1cc(-c2ccc(C(=O)N[C@H](C)c3cc(F)c(NS(C)(=O)=O)c(F)c3)o2)cc(C(F)(F)F)c1` [Example 114, 5-(3-Trifluoromethyl-5-vinyl-phenyl)-furan-2-carboxylic acid [1-(3,5-difluoro-4-methanesulfonylamino-phenyl)-ethyl]-amide], the inhibition at 3 µM was 93%.

Staying with this assay, now noted: DRG neuron; @10 μM; neonatal SD rat DRG neurons; capsaicin 0.5 μM; read-out: Antagonist Calcium Uptake Test, percent inhibition of capsaicin response.
Turning to `CC(C)c1cccc(Oc2ccc(C(=O)N[C@H](C)c3cc(F)c(NS(C)(=O)=O)c(F)c3)s2)c1` [Example 21, 5-(3-Isopropyl-phenoxy)-thiophene-2-carboxylic acid [1-(3,5-difluoro-4-methanesulfonylamino-phenyl)-ethyl]-amide], the inhibition at 10 µM was 56%.

Staying with this assay, now noted: neonatal SD rat DRG neurons; capsaicin 0.5 μM; 45Ca.
For the molecule `CC(C)c1ccccc1Oc1nc(C(=O)N[C@H](C)c2cc(F)c(NS(C)(=O)=O)c(F)c2)co1` [Example 3, 2-(2-Isopropyl-phenoxy)-oxazole-4-carboxylic acid [1-(3,5-difluoro-4-methanesulfonylamino-phenyl)-ethyl]-amide], the pIC50 was 6.31.

As for `COc1cccc(-c2nc(C(=O)N[C@H](C)c3cc(F)c(NS(C)(=O)=O)c(F)c3)co2)c1` (stereo in doubt) [Example 68, 2-(3-Methoxy-phenyl)-oxazole-4-carboxylic acid [1-(3,5-difluoro-4-methanesulfonylamino-phenyl)-ethyl]-amide], the pIC50 was 5.77.

On to `C[C@@H](NC(=O)c1coc(Oc2ccc3ncccc3c2)n1)c1cc(F)c(NS(C)(=O)=O)c(F)c1` [Example 23, 2-(Quinolin-6-yloxy)-oxazole-4-carboxylic acid [1-(3,5-difluoro-4-methanesulfonylamino-phenyl)-ethyl]-amide], for which the negative logarithm of the IC50 (pIC50) was 4.92.

With `CC(C)c1cccc(Oc2ccc(C(=O)N[C@H](C)c3cc(F)c(NS(C)(=O)=O)c(F)c3)o2)c1` [Example 59, 5-(3-Isopropyl-phenoxy)-furan-2-carboxylic acid [1-(3,5-difluoro-4-methanesulfonylamino-phenyl)-ethyl]-amide], the pIC50 is 6.00. Same read-out and setting: then `CS(=O)(=O)Nc1c(F)cc(CNC(=O)c2csc(Cc3ccc(F)c(F)c3)n2)cc1F` [Example 12, N-[1-(3,5-Difluoro-4-methanesulfonylamino)-benzyl]-2-(3,4-difluorobenzyl)-thiazole-4-amide], with less than 5.00; and `Cc1cc(C)cc(-c2nc(C(=O)N[C@H](C)c3cc(F)c(NS(C)(=O)=O)c(F)c3)co2)c1` [Example 99, 2-(3,5-Dimethyl-phenyl)-oxazole-4-carboxylic acid [1-(3,5-difluoro-4-methanesulfonylamino-phenyl)-ethyl]-amide], with 5.70. On the same count and under the same terms, then `C[C@@H](NC(=O)c1coc(-c2cccc(-c3ccccc3)c2)n1)c1cc(F)c(NS(C)(=O)=O)c(F)c1` [Example 70, 2-Biphenyl-3-yl-oxazole-4-carboxylic acid [1-(3,5-difluoro-4-methanesulfonylamino-phenyl)-ethyl]-amide], with 6.06; and `CCc1cc(-c2ccc(C(=O)N[C@H](C)c3cc(F)c(NS(C)(=O)=O)c(F)c3)o2)cc(C(F)(F)F)c1` [Example 116, 5-(3-Ethyl-5-trifluoromethyl-phenyl)-furan-2-carboxylic acid [1-(3,5-difluoro-4-methanesulfonylamino-phenyl)-ethyl]-amide], with 6.80; and `CCCc1cc(C(F)(F)F)ccc1Oc1nc(C(=O)N[C@H](C)c2cc(F)c(NS(C)(=O)=O)c(F)c2)co1` [Example 33, 2-(2-Propyl-4-trifluoromethyl-phenoxy)-oxazole-4-carboxylic acid [1-(3,5-difluoro-4-methanesulfonylamino-phenyl)-ethyl]-amide], with 5.31. Consider `CC(C)c1cccc(-c2ccc(C(=O)N[C@H](C)c3cc(F)c(NS(C)(=O)=O)c(F)c3)s2)c1` [Example 72, 5-(3-Isopropyl-phenyl)-thiophene-2-carboxylic acid [1-(3,5-difluoro-4-methanesulfonylamino-phenyl)-ethyl]-amide], for which the negative logarithm of the IC50 (pIC50) was 5.85. On the same count and under the same terms, as for `C[C@@H](NC(=O)c1coc(NCC2CCCCC2)n1)c1cc(F)c(NS(C)(=O)=O)c(F)c1` [Example 13, 2-(Cyclohexylmethyl-amino)-oxazole-4-carboxylic acid [1-(3,5-difluoro-4-methanesulfonylamino-phenyl)-ethyl]-amide], the figure is 5.85; as for `C[C@@H](NC(=O)c1coc(Oc2cccc(Cl)n2)n1)c1cc(F)c(NS(C)(=O)=O)c(F)c1` [Example 26], less than 5.00. The same measure, in the same setting: then `C[C@@H](NC(=O)c1coc(-c2cccc(Cl)c2)n1)c1cc(F)c(NS(C)(=O)=O)c(F)c1` [Example 82, 2-(3-Chloro-phenyl)-oxazole-4-carboxylic acid [1-(3,5-difluoro-4-methanesulfonylamino-phenyl)-ethyl]-amide], with 6.19; and `CC(C)c1cccc(Oc2nc(C(=O)N[C@H](C)c3cc(F)c(NS(C)(=O)=O)c(F)c3)cs2)c1` [Example 31, 2-(3-Isopropyl-phenoxy)-thiazole-4-carboxylic acid [1-(3,5-difluoro-4-methanesulfonylamino-phenyl)-ethyl]-amide], with 5.70; and `C[C@@H](NC(=O)c1coc(Oc2cccc(I)c2)n1)c1cc(F)c(NS(C)(=O)=O)c(F)c1` [Example 58, 2-(3-Iodo-phenoxy)-oxazole-4-carboxylic acid [1-(3,5-difluoro-4-methanesulfonylamino-phenyl)-ethyl]-amide], with 7.03. Same read-out and setting: as for `C[C@@H](NC(=O)c1ccc(-c2cccc(C(F)(F)F)c2)s1)c1cc(F)c(NS(C)(=O)=O)c(F)c1` (stereo in doubt) [Example 73, 5-(3-Trifluoromethyl-phenyl)-thiophene-2-carboxylic acid [1-(3,5-difluoro-4-methanesulfonylamino-phenyl)-ethyl]-amide], the figure is 4.98.

Consider `CCC1CCc2c(Oc3nc(C(=O)N[C@H](C)c4cc(F)c(NS(C)(=O)=O)c(F)c4)co3)cccc21` (stereo partly shown) [Example 38, 2-(1-Ethyl-indan-4-yloxy)-oxazole-4-carboxylic acid [1-(3,5-difluoro-4-methanesulfonylamino-phenyl)-ethyl]-amide], for which the negative logarithm of the IC50 (pIC50) was 6.40. On the same count and under the same terms, then `CCc1cccc(Oc2nc(C(=O)N[C@H](C)c3cc(F)c(NS(C)(=O)=O)c(F)c3)co2)c1` [Example 29, 2-(3-Ethyl-phenoxy)-oxazole-4-carboxylic acid [1-(3,5-difluoro-4-methanesulfonylamino-phenyl)-ethyl]-amide], with 6.55; and `C[C@@H](NC(=O)c1coc(Oc2cc(C(F)(F)F)ccc2C2CC2)n1)c1cc(F)c(NS(C)(=O)=O)c(F)c1` [Example 54, 2-(2-Cyclopropyl-5-trifluoromethyl-phenoxy)-oxazole-4-carboxylic acid [1-(3,5-difluoro-4-methanesulfonylamino-phenyl)-ethyl]-amide], with 5.54; and `COc1ccc(C(C)C)cc1-c1nc(C(=O)N[C@H](C)c2cc(F)c(NS(C)(=O)=O)c(F)c2)co1` [Example 77, 2-(5-Isopropyl-2-methoxy-phenyl)-oxazole-4-carboxylic acid [1-(3,5-difluoro-4-methanesulfonylamino-phenyl)-ethyl]-amide], with 5.70. Same read-out and setting: as for `C[C@@H](NC(=O)c1coc(Oc2cccc(Br)c2)n1)c1cc(F)c(NS(C)(=O)=O)c(F)c1` [Example 15, 2-(3-Bromo-phenoxy)-oxazole-4-carboxylic acid [1-(3,5-difluoro-4-methanesulfonylamino-phenyl)-ethyl]-amide], the figure is 6.22; as for `C[C@@H](NC(=O)c1coc(Oc2ccc3c(c2)CCC3)n1)c1cc(F)c(NS(C)(=O)=O)c(F)c1` [Example 22, 2-(Indan-5-yloxy)-oxazole-4-carboxylic acid [1-(3,5-difluoro-4-methanesulfonylamino-phenyl)-ethyl]-amide], 5.72.

For the origin of these results see US8691855B2, “Compounds, isomer thereof, or pharmaceutically acceptable salts thereof as vanilloid receptor antagonist and pharmaceutical compositions containing the same” (Amorepacific Corporation, priority 2008, dated 2014).
